# From US20110039825A1, “LIGANDS OF ALPHA-ADRENOCEPTORS, DOPAMINE, HISTAMINE, IMIDAZOLINE AND SEROTONIN RECEPTORS AND THEIR USE” (Alla Chem, LLC, priority 2007, published 2011)
# How the values were obtained:
# [1] = target: T1, recombinant human 5-HT2C receptor (Homo sapiens, UniProt P28335); assay: radioligand binding to serotonin receptor 5-HT2C ([3H] Mesulergine)
# T1 construct: expressed in transfected cells; host or cells: CHO-K1
# T1 sequence (P28335 33-458): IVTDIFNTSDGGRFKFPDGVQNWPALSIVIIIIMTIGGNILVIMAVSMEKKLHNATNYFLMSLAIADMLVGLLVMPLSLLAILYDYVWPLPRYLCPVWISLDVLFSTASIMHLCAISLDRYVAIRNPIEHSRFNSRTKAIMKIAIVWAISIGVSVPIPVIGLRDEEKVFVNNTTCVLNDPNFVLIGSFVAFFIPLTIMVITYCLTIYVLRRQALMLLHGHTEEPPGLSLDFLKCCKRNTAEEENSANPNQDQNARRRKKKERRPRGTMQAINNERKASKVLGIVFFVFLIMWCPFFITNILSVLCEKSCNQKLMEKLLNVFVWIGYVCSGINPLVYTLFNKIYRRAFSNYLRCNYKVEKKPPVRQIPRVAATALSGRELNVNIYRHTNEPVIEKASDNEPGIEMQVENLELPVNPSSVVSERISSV
# From the text: J. Neurochem. 69: 1449-1458, 1997]. […] SB242084 is used as positive control.
# [2] = target: T2, recombinant human 5-HT2B receptor (Homo sapiens, UniProt P41595); assay: radioligand binding to serotonin receptor 5-HT2B ([3H] Lysergic acid diethylamide); details: 10 μM ligand
# T2 construct: expressed in transfected cells; host or cells: CHO-K1
# Experimental: Screening of the disclosed compounds for potential ability to interact with serotonin receptor 5-HT2A is carried out by method of radioligand binding. For this purpose membrane species are prepared from CHO-K1 cells comprising recombinant human 5-HT2B receptor by homogenization of recombinant cells in glass homogenizer with the subsequent separation of plasmatic membranes from cell nuclei, mitochondrias and cell wreckages by differential centrifugation. […] After incubation the samples are filtered in vacuo on glass-microfiber filters G/F (Millipor, USA), filters are washed three times with cold solution of medium and radioactivity is measured by scintillation counter MicroBeta 340 (Perkin Elmer, USA). […] Ketanserin is used as positive control. The tested compounds' binding to the receptor is determined by their ability to displace the radioligand and is expressed in percent of displacement (% I). Values of % I are calculated according to the following equation:
# wherein: TA—is the overall radioactivity in the presence of radioligand only, CA—is the radioactivity in the presence of radioligand and tested compound and NA—is the radioactivity in the presence of radioligand and Serotonin (10 μM).
# [3] = target: T3, recombinant human 5-HT6 receptor (Homo sapiens, UniProt P50406); assay: radioligand binding to serotonin receptor 5-HT6 ([3H] Lysergic acid diethylamide); details: ligand concentration 1 μM; read-out: 5-HT6 % inhibition
# T3 construct: expressed in transfected cells; host or cells: HeLa
# From the text: Mol. Pharmacol. 43:320-327, 1993]. […] Methiothepin is used as positive control.
# imidazoline receptor I2 = assay: radioligand binding to imidazoline receptor I2 ([3H] Idazoxan); parameters: species or system rat; details: 10 μM ligand
# Experimental: Determination of investigated compounds' binding to imidazoline I2 receptor is carried out according to the method described in [Brown C M, MacKinnon A C, McGrath J C, Spedding M and Kilpatrick A T, a2-Adrenoceptor subtypes and imidazoline-like binding in the rat brain. Br J. Pharmacol. 99:803-809, 1990]. […] Idazoxan is used as positive control.
# recombinant human 5-HT1A = target: T4, recombinant human 5-HT1A (Homo sapiens, UniProt P08908); assay: radioligand binding to serotonin receptor 5-HT1A ([3H] 8-OH-DPAT); details: ligand concentration 1 μM
# T4 construct: expressed in transfected cells; host or cells: CHO
# T4 sequence (P08908 1-422): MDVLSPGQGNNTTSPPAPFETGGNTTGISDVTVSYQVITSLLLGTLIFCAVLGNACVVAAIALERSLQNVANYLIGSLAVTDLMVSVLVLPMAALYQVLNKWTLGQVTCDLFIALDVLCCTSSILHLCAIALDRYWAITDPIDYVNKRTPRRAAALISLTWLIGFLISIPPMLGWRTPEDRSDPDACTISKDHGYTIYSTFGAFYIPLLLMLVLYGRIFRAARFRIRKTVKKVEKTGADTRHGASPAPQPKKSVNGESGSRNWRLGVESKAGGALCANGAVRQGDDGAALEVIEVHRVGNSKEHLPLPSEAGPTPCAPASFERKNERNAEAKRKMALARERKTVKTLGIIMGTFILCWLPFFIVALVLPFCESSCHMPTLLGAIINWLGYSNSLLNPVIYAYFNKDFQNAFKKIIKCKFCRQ
# From the text: J Pharmacol Exp Ther. 306(1): 301-309, 2003]. […] Metergoline is used as positive control.
# T2 sequence (P41595 whole entry): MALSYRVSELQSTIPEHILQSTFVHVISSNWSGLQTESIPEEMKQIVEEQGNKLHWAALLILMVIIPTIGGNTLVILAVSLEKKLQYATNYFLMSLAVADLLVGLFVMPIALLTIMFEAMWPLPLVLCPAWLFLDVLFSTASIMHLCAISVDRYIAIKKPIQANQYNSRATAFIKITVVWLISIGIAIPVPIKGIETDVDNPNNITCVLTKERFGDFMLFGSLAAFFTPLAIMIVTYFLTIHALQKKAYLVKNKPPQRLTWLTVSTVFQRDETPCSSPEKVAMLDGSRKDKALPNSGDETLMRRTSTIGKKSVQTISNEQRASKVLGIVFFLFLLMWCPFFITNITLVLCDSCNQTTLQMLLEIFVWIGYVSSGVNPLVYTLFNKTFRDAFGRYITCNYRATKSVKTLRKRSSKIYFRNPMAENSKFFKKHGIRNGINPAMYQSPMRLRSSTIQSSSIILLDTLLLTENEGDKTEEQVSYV
# T3 sequence (P50406 whole entry): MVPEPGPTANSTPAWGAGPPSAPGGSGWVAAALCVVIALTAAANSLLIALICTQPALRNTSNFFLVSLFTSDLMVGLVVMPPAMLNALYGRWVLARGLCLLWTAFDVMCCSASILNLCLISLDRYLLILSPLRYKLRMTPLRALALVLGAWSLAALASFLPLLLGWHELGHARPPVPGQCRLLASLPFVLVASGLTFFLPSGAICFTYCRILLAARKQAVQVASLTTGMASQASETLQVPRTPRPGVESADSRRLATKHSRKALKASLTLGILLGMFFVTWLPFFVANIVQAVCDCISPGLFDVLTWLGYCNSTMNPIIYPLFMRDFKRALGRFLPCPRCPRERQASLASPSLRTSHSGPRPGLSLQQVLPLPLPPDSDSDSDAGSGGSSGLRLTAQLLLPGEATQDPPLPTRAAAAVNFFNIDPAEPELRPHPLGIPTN
smiles,measurement,setting,value
Cc1ccc2c(c1)c1c(n2CCc2ccccn2)CCCN(C)C1 [1.2.2(2-2)],5-HT2C % inhibition,[1]; 10 μM ligand,51%
same,inhibition at 1 µM,[1]; ligand concentration 1 μM,94%
same,5-HT2B % inhibition,[2],10%
same,inhibition at 1 µM,[3],88%
same,imidazoline I2 receptor % inhibition,imidazoline receptor I2,80%
same,inhibition at 1 µM,recombinant human 5-HT1A,28%
